Test results reported in US12257248B2, “Bronchodilators for treating obstructive lung disease” (University of South Florida, priority 2020, dated 2025).
Like-named read-outs stand apart in the source and are kept apart here.

Assays:
D9-HASM cells = assay: [Ca2+]i stimulation screening assay (Fluo-4) in D9-HASM cells; type: cell-based, human; conditions: for EC50: Fluo-4, mean±SE from 4-8 experiments, read-out: EC50 ([Ca^2+]i stimulation); for Emax / Rmax (% ionomycin): maximal [Ca2+]i response normalized to ionomycin 2.0 μM; for Emax: read-out: Rmax (% ionomycin)
Method: Cultured D9 telomerase reverse transcriptase immortalized HASM (D9-HASM) cells were utilized for the [Ca^2+]i screening assays. Cells were seeded onto 96 well plates and loaded with Fluo-4 direct. The [Ca^2+]i responses to multiple concentrations of potential agonists were determined as a measure of receptor activation. Control cells were exposed to the non-specific ionophore ionomycin at 2.0 μM (a maximal effective concentration, FIG. 4). Results from TAS2R agonist studies were normalized to the ionomycin response in order to compare the maximal responses (Rmax) between agonists. The concentration-response data were fit to a four component logistic regression model (sigmoid curve) using iterative non-linear regression methods to determine the EC50 and Rmax. The structures of the previously identified agonist termed T5-1, and 18 derivatives (denoted as T5-2 through T5-19) are shown in FIG. 2. Representative [Ca^2+]i responses to these compounds are shown in FIG. 4, and mean results from multiple concentration-response experiments are shown in FIG. 3. Table 1 summarizes the results in terms of potency (EC50) and efficacy (Rmax), with statistical comparisons to T5-1.

primary HASM cells = assay: HASM cell relaxation by magnetic twisting cytometry (MTC); type: cell-based, human; conditions: for Relaxation (% basal): primary HASM cells passages 5-7, non-asthmatic donor, MTC, single concentration 500 μM; for rank of HASM cell relaxation response (FIG. 7): 500 μM, added at 60 seconds, 200-400 cells per compound
Method: FIG. 7 depicts HASM cell relaxation responses to selected compounds. Compounds were studied at a concentration of 500 μM and were added to the culture media at the 60 second time point (arrow). Results are from measurements of 200-400 cells per compound. *, P<0.01 vs the T5-1 reference response.
To correlate the [Ca^2+]i responses of the compounds to relevant physiologic function, we turned to measurements of single-cell mechanics in HASM cells using magnetic twisting cytometry (MTC) as previously described. Here, cultured primary HASM cells at passages 5-7 derived from a non-asthmatic donor lung were utilized. […] Positive controls (FIG. 6) included the β-agonists albuterol (partial agonist), formoterol (full agonist) and forskolin, which increases cAMP by direct activation of adenylyl cyclase.

EC50 (D9-HASM cells; Homo sapiens) [µM]	Structure (SMILES)	Emax (D9-HASM cells; Homo sapiens) [%]	Relaxation (% basal) (primary HASM cells)	rank of HASM cell relaxation response (FIG. 7) (primary HASM cells)	EC50 (D9-HASM cells) [µM]	Rmax (% ionomycin) (D9-HASM cells)
4.6 ± 0.42	Nc1cc2cccnc2c2ncccc12 [T5-9, 1,10-Phenanthrolin-5-amine]	176 ± 14.2	7.2 ± 1.95			
33.3 ± 6.4	Cc1ccc2ccc3ccc(C)nc3c2n1 [T5-5, 2,9-Dimethyl-1,10-phenanthroline]	143 ± 13.1	12.0 ± 1.47			
29.7 ± 5.57	c1cnc2c(c1)ccc1cccnc12 [T5-1, 1,10-Phenanthroline, reference compound]	149 ± 10.2	10.8 ± 2.17			
4.05 ± 0.8	CCc1c(CC)c2cccnc2c2ncccc12 [T5-16, 5,6-Diethyl-1,10-phenanthroline]	183 ± 14.7				
	c1cnc2ccc3ncccc3c2c1 [T5-4, 4,7-Phenanthroline]	15.4 ± 3.37	15.3 ± 1.48			
12.1 ± 1.99	Cc1cc2cccnc2c2ncccc12 [T5-12, 5-Methyl-1,10-phenanthroline]	181 ± 24.6				
4.35 ± 0.71	Brc1cc2cccnc2c2ncccc12 [T5-10, 5-Bromo-1,10-phenanthroline]	182 ± 25.7	14.4 ± 1.93			
7.48 ± 0.78	COc1c(OC)c2cccnc2c2ncccc12 [T5-15, 5,6-Dimethoxy-1,10-phenanthroline]	127 ± 16.1	26.7 ± 1.65	then 15		
25.5 ± 7.06	C=C(C)c1c(C(=C)C)c2cccnc2c2ncccc12 [T5-17, 5,6-di(prop-1-en-2yl)-1,10-phenanthroline]	113 ± 19	13.5 ± 2.59			
0.12 ± 0.05	O=C1C(=O)c2cccnc2-c2ncccc21 [T5-8, 1,10-Phenanthroline-5,6-dione]	199 ± 20.2	50.2 ± 2.79	greatest degree of relaxation		
	c1ccc(-c2ccccn2)nc1 [T5-2, 2,2′-Bipyridine]	16.4 ± 4.48	−3.2 ± 1.67			
	Clc1cc2cccnc2c2ncccc12 [T5-11, 5-Chrolo-1,10-phenanthroline]		18.0 ± 2.13	then 18 and 11	11.1 ± 2	183 ± 7.3
	Cc1ccnc(-c2cc(C)ccn2)c1 [T5-19, 4,4′-Dimethyl-2,2′-dipyridyl]				60.6 ± 9.13	58.9 ± 2.95
1.39 ± 0.19	Cc1ccnc2c1ccc1c(C)ccnc12 [T5-6, 4,7-Dimethyl-1,10-phenanthroline]	147 ± 16.7	5.3 ± 1.95			
36 ± 3.85	O=[N+]([O-])c1cc2cccnc2c2ncccc12 [T5-13, 5-Nitro-1,10-phenanthroline]	134 ± 11.9	12.8 ± 2.00			
2.05 ± 0.2	Cc1c(C)c2cccnc2c2ncccc12 [T5-7, 5,6-Dimethyl-1,10-phenanthroline]	163 ± 36.4	9.0 ± 2.19			

Structure (SMILES)	EC50 (D9-HASM cells; Homo sapiens) [µM]	Emax (D9-HASM cells; Homo sapiens) [%]	Relaxation (% basal) (primary HASM cells)	rank of HASM cell relaxation response (FIG. 7) (primary HASM cells)	EC50 (D9-HASM cells) [µM]	Rmax (% ionomycin) (D9-HASM cells)
O=C1C(=O)c2ccccc2-c2ccccc21 [T5-18, 9,10-Phenanthrenequinone]	5.08 ± 1.37	153 ± 5.2	20.0 ± 2.00	then 18 and 11		
c1cnc2c(c1)ccc1ncccc12 [T5-3, 1,7-Phenanthroline]	24.9 ± 4.58	121 ± 16.7	34.8 ± 1.36			
c1cnc2c(c1)c1nccnc1c1cccnc12 [T5-14, Pyrazino[2,3-f][1,10]phenanthroline]	147 ± 2.26	34.5 ± 15.1	6.1 ± 1.67			
